Data: patent US9428507B2, “Compounds for the treatment of malaria” (The Broad Institute, Inc., priority 2013, dated 2016)

The compounds below were run on Dd2 strain of P. falciparum (assay: Activity against the Dd2 strain of P. falciparum (SYBR Green I, 72-h incubation)). Conditions: Plasmodium falciparum, DD2, 72 h, read-out: EC^50 Dd2.
Type: cell-based
Method in brief: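 Dd2 parasites at 1% parasitemia and 1.0% hematocrit in albumax II screening medium, 72 h at 37° C under 93% N2/4% CO2/3% O2; final DMSO 0.125%. Growth read as SYBR Green I fluorescence (485/530 nm) after lysis and 24 h staining. 20 μM mefloquine defined background, DMSO baseline.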

| Compound | EC50 |
| --- | --- |
| COc1ccc2c3c(n(C)c2c1)[C@H](CO)N(C(=O)Nc1ccc(F)cc1)CC31CN(C(=O)c2ccc3c(c2)OCO3)C1 [Compound 123, (R)-1-(benzo[d] [1,3]dioxole-5-carbonyl)-N-(4-fluorophenyl)-1′-(hydroxymethyl)-7′-methoxy-9′-methyl-3′,9′-dihydrospiro [azetidine-3,4′-pyrido[3,4-b]indole]-2′(1′H)-carboxamide] | 0.683 µM |
| COc1ccc2c3c([nH]c2c1)[C@H](CO)N(C(C)=O)CC31CCN(C(=O)NC2CCCCC2)CC1 [Compound 43, (R)-2′-acetyl-N-cyclohexy1-1′-(hydroxymethyl)-7′-methoxy-1′,2′,3′,9′-tetrahydrospiro[piperidine-4,4′-pyrido[3,4-b]indole]-1-carboxamide] | 3.37 to 5.22 µM |
| COc1ccc2c3c([nH]c2c1)[C@H](CO)N(C(C)=O)CC31CCN(c2nc3ccccc3o2)CC1 [Compound 77, (R)-1-(1-(benzo[d]oxazol-2-yl)-1′-(hydroxymethyl)-7′-methoxyspiro [piperidine-4,4′-pyrido[3,4-b]indol]-2′(1′H,3′H,9′H)-yl)ethanone] | 8.5 µM |
| COc1ccc(COC[C@H]2c3[nH]c4cc(OC)ccc4c3C3(CCN(C(=O)Nc4ccccc4F)CC3)CN2C(C)=O)cc1 [Compound 66, (R)-2′-acetyl-N-(2-fluorophenyl)-7′-methoxy-1′-(((4-methoxybenzyl)oxy)methyl)-1′,2′,3′,9′-tetrahydrospiro[piperidine-4,4′-pyrido[3,4-b]indole]-1-carboxamide] | 0.422 µM |
| COc1ccc2c3c(n(C)c2c1)[C@H](CO)N(CC1CC1)CC31CN(C(=O)c2ccc3c(c2)OCO3)C1 [Compound 95, (R)-benzo[d] [1,3]dioxol-5-yl(2′-(cyclopropylmethyl)-1′-(hydroxymethyl)-7′-methoxy-9′-methyl-1′,2′,3′,9′-tetrahydrospiro [azetidine-3,4′-pyrido[3,4-b]indol]-1-yl)methanone] | 1.26 µM |
| COc1ccc2c3c(n(C)c2c1)[C@H](CO)N(Cc1ccc2c(c1)OCO2)CC31CN(C(=O)c2ccc3c(c2)OCO3)C1 [Compound 81, (R)-benzo[d][1,3] dioxol-5-y1(2′-(benzo[d][1,3]dioxol-5-ylmethyl)-1′-(hydroxymethyl)-7′-methoxy-9′-methyl-1′,2′,3′,9′-tetrahydrospiro[azetidine-3,4′-pyrido[3,4-b]indol]-1-yl)methanone] | 0.13 µM |
| COc1ccc2c3c([nH]c2c1)[C@H](CO)N(C(C)=O)CC31CCN(S(=O)(=O)c2ccccc2F)CC1 [Compound 59, (R)-1-(1-((2-fluorophenyl)sulfonyl)-1′-(hydroxymethyl)-7′-methoxyspiro[piperidine-4,4′-pyrido[3,4-b]indol]-2′(1′H,3′H,9′H)-yl)ethanone] | 1.46 to 2.89 µM |
| COC[C@H]1c2[nH]c3cc(OC)ccc3c2C2(CCN(C(=O)Nc3ccccc3F)CC2)CN1C(C)=O [Compound 69, (R)-2′-acetyl-N-(2-fluorophenyl)-7′-methoxy-1′-(methoxymethyl)-1′,2′,3′,9′-tetrahydrospiro [piperidine-4,4′-pyrido[3,4-b]indole]-1-carboxamide] | 9.05 µM |
| COCCOCOC[C@H]1c2[nH]c3cc(OC)ccc3c2C2(CCN(C(=O)Nc3ccccc3F)CC2)CN1C(C)=O [Compound 64, (R)-2′-acetyl-N-(2-fluorophenyl)-7′-methoxy-1′-(((2-methoxyethoxy)methoxy)methyl)-1′,2′,3′,9′-tetrahydrospiro[piperidine-4,4′-pyrido[3,4-b]indole]-1-carboxamide] | 3.62 µM |
| COc1ccc2c3c([nH]c2c1)[C@H](CO)N(C(C)=O)CC31CCN(C(=O)c2ccccc2F)CC1 [Compound 41, (R)-1-(1-(2-fluorobenzoyl)-1′-(hydroxymethyl)-7′-methoxyspiro[piperidine-4,4′-pyrido[3,4-b]indol]-2′(1′H,3′H,9′H)-yl)ethanone] | 17.5 µM |
| COc1ccc2c3c([nH]c2c1)[C@H](CO)N(C(=O)Nc1ccc(F)cc1)CC31CCN(S(=O)(=O)c2ccccc2)CC1 [Compound 80, (R)-N-(4-fluorophenyl)-1′-(hydroxymethyl)-7′-methoxy-1-(phenylsulfonyl)-3′,9′-dihydrospiro[piperidine-4,4′-pyrido[3,4-b]indole]-2′(1′H)-carboxamide] | 1.3 µM |
| COc1ccc2c3c(n(C)c2c1)[C@@H](CO)N(C(=O)C1CCCC1)CC31CCN(C(=O)Nc2cccc(F)c2)CC1 [Compound 100, (S)-2′-(cyclopentanecarbonyl)-N-(3-fluorophenyl)-1′-(hydroxymethyl)-7′-methoxy-9′-methyl-1′,2′,3′,9′-tetrahydrospiro[piperidine-4,4′-pyrido[3,4-b]indole]-1-carboxamide] | 0.418 µM |
| COc1ccc2c3c(n(C)c2c1)[C@@H](CO)N(C(=O)Nc1ccc(F)cc1)CC31CCN(Cc2ccccn2)CC1 [Compound 101, (S)-N-(4-fluorophenyl)-1′-(hydroxymethyl)-7′-methoxy-9′-methyl-1-(pyridin-2-ylmethyl)-3′,9′-dihydrospiro [piperidine-4,4′-pyrido[3,4-b]indole]-2′(1′H)-carboxamide] | 2.05 µM |
| COc1ccc2c3c(n(C)c2c1)[C@H](CO)N(C(C)=O)CC31CCN(C(=O)Nc2ccccc2F)CC1 [Compound 5, (R)-2′-acetyl-N-(2-fluorophenyl)-1′-(hydroxymethyl)-7′-methoxy-9′-methyl-1′,2′,3′,9′-tetrahydrospiro [piperidine-4,4′-pyrido[3,4-b]indole]-1-carboxamide] | 6.49 µM |
| COc1ccc2c3c([nH]c2c1)[C@H](C)N(C(C)=O)CC31CCN(C(=O)Nc2ccccc2F)CC1 [Compound 48, (S)-2-acetyl-N-(2-fluorophenyl)-7′-methoxy-1'-methyl-1′,2′,3′,9′-tetrahydrospiro[piperidine-4,4′-pyrido[3,4-b]indole]-1-carboxamide] | 0.214 to 0.236 µM |
| COc1ccc2c3c(n(C)c2c1)[C@H](CO)NCC31CCN(Cc2ccc(-c3ccccn3)cc2)CC1 [Compound 79, (R)-(7′-methoxy-9′-methyl-1-(4-(pyridin-2-yl)benzyl)-1′,2′,3′,9′-tetrahydrospiro [piperidine-4,4′-pyrido[3,4-b]indol]-1′-yl)methanol] | 0.135 µM |
| COc1ccc2c3c(n(C)c2c1)[C@@H](CO)N(C(=O)CN(C)C)CC31CCN(Cc2cccnc2)CC1 [Compound 90, (S)-2-(dimethylamino)-1-(1′-(hydroxymethyl)-7′-methoxy-9′-methyl-1-(pyridin-3-ylmethyl)spiro [piperidine-4,4′-pyrido[3,4-b]indol]-2′(1′H,3′H,9′H)-yl)ethanone] | 2.61 µM |
| COc1ccc2c3c(n(C)c2c1)[C@@H](CO)N(C(=O)C1CCCC1)CC31CN(C(=O)Nc2cccc(F)c2)C1 [Compound 99, (S)-2′-(cyclopentanecarbonyl)-N-(3-fluorophenyl)-1′-(hydroxymethyl)-7′-methoxy-9′-methyl-1′,2′,3′,9′-tetrahydrospiro [azetidine-3,4′-pyrido[3,4-b]indole]-1-carboxamide] | 1.88 µM |
| CCCC(=O)N1CC2(CCN(C(=O)Nc3ccccc3F)CC2)c2c([nH]c3cc(OC)ccc23)[C@@H]1CO [Compound 36, (R)-2′-butyryl-N-(2-fluorophenyl)-1′-(hydroxymethyl)-7′-methoxy-1′,2′,3′,9′-tetrahydrospiro[piperidine-4,4′-pyrido[3,4-b]indole]-1-carboxamide] | 0.423 µM |
| COc1ccc2c3c(n(C)c2c1)[C@H](CO)N(C(=O)Nc1ccc(F)cc1)CC31CCN(C)CC1 [Compound 96, (R)-N-(4-fluorophenyl)-1′-(hydroxymethyl)-7′-methoxy-1,9′-dimethyl-3′,9′-dihydrospiro[piperidine-4,4′-pyrido[3,4-b]indole]-2′(1′H)-carboxamide] | 2.87 µM |
| COc1ccc2c3c([nH]c2c1)[C@H](CO)N(C(C)=O)CC31CCN(Cc2ccccc2F)CC1 [Compound 21, (R)-1-(1-(2-fluorobenzyl)-1′-(hydroxymethyl)-7′-methoxyspiro[piperidine-4,4′-pyrido[3,4-b]indol]-2′(1′H,3′H,9′H)-yl)ethanone] | 4.01 µM |
| CCCC(=O)N1CCC2(CC1)CN(S(=O)(=O)c1ccc(C)cc1)[C@@H](CO)c1[nH]c3cc(OC)ccc3c12 [Compound 98, (R)-1-(1′-(hydroxymethyl)-7′-methoxy-2′-tosyl-1′,2′,3′,9′-tetrahydrospiro[piperidine-4,4′-pyrido[3,4-b]indol]-1-yl)butan-1-one] | 0.098 µM |
| COc1ccc2c3c([nH]c2c1)[C@H](CO)N(CCCc1ccccc1)CC31CCN(C(=O)Nc2ccccc2F)CC1 [Compound 71, (R)-N-(2-fluorophenyl)-1′-(hydroxymethyl)-7′-methoxy-2′-(3-phenylpropy1)-1′,2′,3′,9′-tetrahydrospiro[piperidine-4,4′-pyrido[3,4-b]indole]-1-carboxamide] | 7.24 µM |

Same assay, conditions: read-out: EC^50 Dd2

| Compound | EC50 |
| --- | --- |
| COc1ccc2c3c(n(C)c2c1)[C@H](CO)N(Cc1ccc(Cl)cc1)CC31CCN(CC2CC2)CC1 [Compound 88, (R)-(2′-(4-chlorobenzyl)-1-(cyclopropylmethyl)-7′-methoxy-9′-methyl-1′,2′,3′,9′-tetrahydrospiro [piperidine-4,4′-pyrido[3,4-b]indol]-1′-yl)methanol] | 1.17 µM |
| Mixture of (1R,3′R) and (1R,3′s)-2-acetyl-N-(2- fluorophenyl)-1- (hydroxymethyl)-7- methoxy-1,2,3,9- tetrahydrospiro[pyrido [3,4-b]indole-4,3′- pyrrolidine]-1′- carboxamide compound with (1R,3′S)-2- acetyl-N-(2- fluorophenyl)-1- (hydroxymethyl)-7- methoxy- 1,2,3,9-tetrahydrospiro [pyrido[3,4-b] indole-4,3′-pyrrolidine]- 1′-carboxamide (1:1) [Compound 72] | 16.5 µM |
